Measured values as given in US20090203753A1, “7-(2-amino-1-hydroxy-ethyl)-4-hydroxybenzothiazol-2(3H)-one-derivatives as beta2 adrenoreceptor agonists” (AstraZeneca AB, priority 2005, published 2009).
Structures can show the parent of a compound that is named as a salt.

Key:
β2 receptor [1] = biological target: T1, β2 receptor (Homo sapiens, UniProt P07550); test: β2 mediated cAMP production in H292 cells, AlphaScreen cAMP detection (10 minutes with test compound); assay type: cell-based; settings: for EC50: cAMP, 10 minutes incubation with compound, 300 μM rolipram; for Intrinsic Activity: fraction relative to the maximum activity determined for formoterol, 10 minutes incubation
T1 construct: endogenous in cells; host or cells: H292 cells
Description: H292 cells were grown in RPMI (Roswell Park Memorial Institute) medium containing, 10% (v/v) FBS (foetal bovine serum) and 2 mM L-glutamine. Cells were grown in 225 cm2 flasks containing 25 mL media in a humidified incubator at 37° C., 5% CO2. Cells were harvested from the flask and passaged at a 1 in 10 dilution once per week.
The media from flasks containing H292 cells was removed, rinsed with 10 mL PBS (phosphate buffered saline) and replaced with 10 mL Accutase™ cell detachment solution. Flasks were incubated for 15 minutes in a humidified incubator at 37° C., 5% CO2. The cell suspension was counted and the cells re-suspended in RPMI media (containing 10% (v/v) FBS and 2 mM L-glutamine) at 0.05×10^6 cells per mL. 5000 cells in 100 μL were added to each well of a tissue-culture-treated 96-well plate and the cells incubated overnight in a humidified incubator at 37° C., 5% CO2. The culture media was removed, washed twice with 100 μL assay buffer and replaced with 50 μL assay buffer. Cells were rested at room temperature for 20 minutes after which time 25 μL of rolipram (1.2 mM made up in assay buffer containing 2.4% (v/v) dimethylsulphoxide) was added. Cells were incubated with rolipram for 10 minutes after which time test compounds (made up as ×4 concentrated stocks in assay buffer containing 4% (v/v) dimethylsulphoxide) were added and the cells were incubated for 10 minutes at room temperature. Final rolipram concentration in the assay was 300 μM and final vehicle concentration was 1.6% (v/v) dimethylsulphoxide. The reaction was stopped by removing supernatants, washing once with 100 μL assay buffer and replacing with 50 μL lysis buffer. The cell monolayer was frozen at −80° C. for 30 minutes (or overnight).
(§1) The concentration of cAMP (cyclic adenosine monophosphate) in the cell lysate was determined using the AlphaScreen™ methodology. The frozen cell plate was thawed for 20 minutes on a plate shaker then 10 μL of the cell lysate was transferred to a 96-well white plate. 40 μL of mixed AlphaScreen™ detection beads (containing equal volumes of donor beads (pre-incubated with biotinylated cAMP in the dark for 30 minutes) and acceptor beads), was added to each well and the plate incubated at room temperature for 10 hours in the dark. The AlphaScreen™ signal was measured using an EnVision spectrophotometer (Perkin-Elmer Inc.) with the recommended manufacturer's settings. cAMP concentrations were determined by reference to a calibration curve determined in the same experiment using standard cAMP concentrations (made up in lysis buffer in a 96-well tissue-culture-treated plate and frozen/thawed alongside the test samples) and detected using the same protocol. Concentration response curves for agonists were constructed to determine both the pEC50 and Intrinsic Activity.

[2] = biological target: T2, recombinant human Dopamine Subtype D2s receptors (Homo sapiens, UniProt P14416); test: Dopamine D2 selectivity assay, [3H]-spiperone binding to membranes; settings: read-out: D2 bind pIC50 (converted)
T2 construct: purchased Perkin Elmer
Description: (§2) Membranes containing recombinant human Dopamine Subtype D2s receptors were obtained from Perkin Elmer. These were diluted in Assay Buffer (50 mM HEPES, 1 nM EDTA, 120 mM NaCl, 0.1% gelatin, pH 7.4) to provide a final concentration of membranes that gave a clear window between maximum and minimum specific binding.
(§3) Assays were performed in U-bottomed 96-well polypropylene plates. 30 μL [^3H]-spiperone (0.16 nM final concentration) and 30 μL of test compound (10× final concentration) were added to each test well. For each assay plate 8 replicates were obtained for [^3H]-spiperone binding in the presence of 30 μL vehicle (10% (v/v) DMSO in Assay Buffer; defining maximum binding) or 30 μL Haloperidol (10 μM final concentration; defining non-specific binding (NSB)). Membranes were then added to achieve a final volume of 300 μL. The plates were incubated for 2 hours at room temperature and then filtered onto PEI coated GF/B filter plates, pre-soaked for 1 hour in Assay Buffer, using a 96-well plate Tomtec cell harvester. Five washes with 250 μL wash buffer (50 mM HEPES, 1 mM EDTA, 120 mM NaCl, pH 7.4) were performed at 4° C. to remove unbound radioactivity. The plates were dried then sealed from underneath using Packard plate sealers and MicroScint-O (50 μL) was added to each well. The plates were sealed (TopSeal A) and filter-bound radioactivity was measured with a scintillation counter (TopCount, Packard BioScience) using a 3-minute counting protocol.
(§4) Total specific binding (B0) was determined by subtracting the mean NSB from the mean maximum binding. NSB values were also subtracted from values from all other wells.

[3] = biological target: T3, recombinant human adrenergic beta 1 receptors (Homo sapiens, UniProt P08588); test: Adrenergic β1 selectivity assay, [125I]-Iodocyanopindolol binding to membranes; settings: inhibition of [125I]-Iodocyanopindolol binding (0.036 nM); read-out: β1 bind pIC50 (converted)
T3 construct: purchased Euroscreen
Description: as §2, with “adrenergic beta 1” for “Dopamine Subtype D2s”, “Euroscreen.” for “Perkin Elmer.”, “mM” for “nM”
as §3, with “10” for “30”, “[^125I]-Iodocyanopindolol (0.036” for “[^3H]-spiperone (0.16”, “[^125I]-Iodocyanopindolol” for “[^3H]-spiperone”, “Propranolol” for “Haloperidol”, “100” for “300”
as §4

[4] = biological target: T4, recombinant human α1D receptor (Homo sapiens, UniProt P25100); test: Adrenergic α1D selectivity assay, [3H]-prazosin binding to HEK293 membranes; settings: read-out: α1 bind pIC50 (converted)
T4 construct: expressed in transfected cells; host or cells: HEK293
T4 sequence (P25100 1-572): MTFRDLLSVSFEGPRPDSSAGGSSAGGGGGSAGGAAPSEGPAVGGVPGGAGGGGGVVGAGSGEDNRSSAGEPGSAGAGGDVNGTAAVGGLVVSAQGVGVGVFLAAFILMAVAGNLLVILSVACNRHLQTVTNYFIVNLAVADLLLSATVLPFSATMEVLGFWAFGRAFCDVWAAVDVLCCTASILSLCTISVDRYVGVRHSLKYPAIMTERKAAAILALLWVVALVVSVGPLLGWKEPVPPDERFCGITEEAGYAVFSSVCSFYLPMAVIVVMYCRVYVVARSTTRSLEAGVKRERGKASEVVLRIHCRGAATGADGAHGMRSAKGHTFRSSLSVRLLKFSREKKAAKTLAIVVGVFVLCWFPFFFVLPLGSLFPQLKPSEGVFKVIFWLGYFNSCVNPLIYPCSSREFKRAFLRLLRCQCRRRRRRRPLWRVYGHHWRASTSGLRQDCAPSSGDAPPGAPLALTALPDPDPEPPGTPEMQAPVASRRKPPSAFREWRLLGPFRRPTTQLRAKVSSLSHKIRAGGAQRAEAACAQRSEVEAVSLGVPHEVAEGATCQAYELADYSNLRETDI
Description: Membranes were prepared from human embryonic kidney 293 (HEK293) cells expressing recombinant human α1D receptor. These were diluted in Assay Buffer (50 mM HEPES, 1 mM EDTA, 0.1% gelatin, pH 7.4) to provide a final concentration of membranes that gave a clear window between maximum and minimum specific binding.
as §3, with “10” for “30”, “[^3H]-prazosin (0.3” for “[^3H]-spiperone (0.16”, “[^3H]-prazosin” for “[^3H]-spiperone”, “BMY7378” for “Haloperidol”, “100” for “300”, “EDTA,” for “EDTA, 120 mM NaCl,”
as §4

β2 receptor [5] = biological target: T1, β2 receptor; test: Alternative adrenergic β2 mediated cAMP production in H292 cells (60 minutes with test compound); assay type: cell-based; settings: for EC50: cAMP, 60 minutes incubation with compound, 300 μM rolipram, read-out: β2 pEC50 (converted); for β2 Int Act: fraction relative to the maximum activity determined for formoterol, 60 minutes incubation
Description: Alternative Adrenergic (β2 Mediated cAMP Production
H292 cells were grown in 225 cm2 flasks incubator at 37° C., 5% CO2 in RPMI medium containing, 10% (v/v) FBS (foetal bovine serum) and 2 mM L-glutamine.
Adherent H292 cells were removed from tissue culture flasks by treatment with Accutase™ cell detachment solution for 15 minutes. Flasks were incubated for 15 minutes in a humidified incubator at 37° C., 5% CO2. Detached cells were re-suspended in RPMI media (containing 10% (v/v) FBS and 2 mM L-glutamine) at 0.05×10^6 cells per mL. 5000 cells in 100 μL were added to each well of a tissue-culture-treated 96-well plate and the cells incubated overnight in a humidified incubator at 37° C., 5% CO2. The culture media was removed and cells were washed twice with 100 μL assay buffer and replaced with 50 μL assay buffer (HBSS solution containing 10 mM HEPES pH7.4 and 5 mM glucose). Cells were rested at room temperature for 20 minutes after which time 25 μL of rolipram (1.2 mM made up in assay buffer containing 2.4% (v/v) dimethylsulphoxide) was added. Cells were incubated with rolipram for 10 minutes after which time test compounds were added and the cells were incubated for 60 minutes at room temperature. The final rolipram concentration in the assay was 300 μM and final vehicle concentration was 1.6% (v/v) dimethylsulphoxide. The reaction was stopped by removing supernatants, washing once with 100 μL assay buffer and replacing with 50 μL lysis buffer. The cell monolayer was frozen at −80° C. for 30 minutes (or overnight).
as §1, with “using” for “using the”, “pre-incubated” for “(containing equal volumes of donor beads (pre-incubated”, “cAMP,” for “cAMP in the dark for 30 minutes) and acceptor beads),”, “concentrations.” for “concentrations (made up in lysis buffer in a 96-well tissue-culture-treated plate and frozen/thawed alongside the test samples) and detected using the same protocol.”, “constructed and data was fitted to a four parameter logistic equation” for “constructed”, “Activity. […]” for “Activity.”

T1 sequence (P07550 whole entry): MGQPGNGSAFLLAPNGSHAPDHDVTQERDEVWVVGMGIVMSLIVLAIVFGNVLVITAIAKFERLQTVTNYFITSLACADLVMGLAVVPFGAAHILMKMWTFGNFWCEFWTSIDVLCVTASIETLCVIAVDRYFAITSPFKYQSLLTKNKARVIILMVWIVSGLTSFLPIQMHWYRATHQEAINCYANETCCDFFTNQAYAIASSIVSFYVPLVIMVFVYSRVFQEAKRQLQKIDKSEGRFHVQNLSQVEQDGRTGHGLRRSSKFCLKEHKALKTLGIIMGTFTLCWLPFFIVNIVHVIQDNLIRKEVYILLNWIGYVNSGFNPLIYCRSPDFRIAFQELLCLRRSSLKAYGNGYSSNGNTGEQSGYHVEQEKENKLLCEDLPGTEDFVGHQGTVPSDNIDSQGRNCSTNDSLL
T3 sequence (P08588 whole entry): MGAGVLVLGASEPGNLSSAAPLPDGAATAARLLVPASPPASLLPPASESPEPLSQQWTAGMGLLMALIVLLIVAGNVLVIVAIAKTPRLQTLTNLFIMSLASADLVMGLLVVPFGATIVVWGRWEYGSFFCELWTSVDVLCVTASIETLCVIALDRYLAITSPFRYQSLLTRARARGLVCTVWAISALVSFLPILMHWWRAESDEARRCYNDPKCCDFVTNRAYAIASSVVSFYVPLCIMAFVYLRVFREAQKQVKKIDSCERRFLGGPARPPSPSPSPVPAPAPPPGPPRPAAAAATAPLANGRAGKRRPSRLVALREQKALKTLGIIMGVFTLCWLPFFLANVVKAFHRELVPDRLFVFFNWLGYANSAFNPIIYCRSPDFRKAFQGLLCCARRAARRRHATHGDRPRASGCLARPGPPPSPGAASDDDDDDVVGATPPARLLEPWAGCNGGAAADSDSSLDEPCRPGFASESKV
T2 sequence (P14416 1-414 isoform P14416-2): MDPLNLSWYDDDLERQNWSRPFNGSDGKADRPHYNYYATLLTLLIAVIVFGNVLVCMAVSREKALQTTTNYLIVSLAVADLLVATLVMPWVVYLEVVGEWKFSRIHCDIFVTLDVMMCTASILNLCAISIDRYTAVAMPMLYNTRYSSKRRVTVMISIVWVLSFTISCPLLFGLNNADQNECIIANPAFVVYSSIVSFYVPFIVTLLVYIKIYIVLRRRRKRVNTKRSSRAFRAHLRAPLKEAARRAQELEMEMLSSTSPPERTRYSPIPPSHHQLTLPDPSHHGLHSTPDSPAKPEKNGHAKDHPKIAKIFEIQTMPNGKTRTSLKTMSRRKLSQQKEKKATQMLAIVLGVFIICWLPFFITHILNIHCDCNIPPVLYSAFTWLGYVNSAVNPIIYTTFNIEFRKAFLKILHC

Compound | EC50 (β2 receptor [1]) [nM] | Intrinsic Activity (β2 receptor [1]) | IC50 [2] [nM] | IC50 [3] [nM] | IC50 [4] [nM] | EC50 (β2 receptor [5]) [nM] | β2 Int Act (β2 receptor [5])
CCCCN(CCNC[C@H](O)c1ccc(OCc2ccccc2)c2[nH]c(=O)sc12)C(=O)CCOCCc1ccccc1 [Example 1, N-[2-[2-(4-Benzyloxy-2-oxo-3H-benzothiazol-7-yl)-(2R)-2-hydroxy-ethyl]aminoethyl]-N-butyl-3-phenethyloxy-propanamide] | 20 | 0.7 | – | – | – | – | –
CCCCN(CCNC[C@H](O)c1ccc(O)c2[nH]c(=O)sc12)C(=O)CCOCCc1ccccc1.Cl [Example 2, N-Butyl-N-(2-{[(2R)-2-hydroxy-2-(4-hydroxy-2-oxo-2,3-dihydro-1,3-benzothiazol-7-yl)ethyl]amino}ethyl)-3-(2-phenylethoxy)propanamide Hydrochloride] | – | – | > 10000 | 6.31 | 2510 | 1 | 0.9
O=C(CCOCCc1ccccc1)N(CCNC[C@H](O)c1ccc(O)c2[nH]c(=O)sc12)CCc1ccccc1 [Example 4, N-(2-{[(2R)-2-Hydroxy-2-(4-hydroxy-2-oxo-2,3-dihydro-1,3-benzothiazol-7-yl)ethyl]amino}ethyl)-3-(2-phenylethoxy)-N-(2-phenylethyl)propanamide] | 1.26 | 1.1 | – | 3.16 | – | 1.26 | 0.9
CN(CCNC[C@H](O)c1ccc(O)c2[nH]c(=O)sc12)C(=O)CCOCCc1ccccc1 [Example 5, N-(2-{[(2R)-2-Hydroxy-2-(4-hydroxy-2-oxo-2,3-dihydro-1,3-benzothiazol-7-yl)ethyl]amino}ethyl)-N-methyl-3-(2-phenylethoxy)propanamide Trifluoroacetate] | 0.316 | 1.0 | – | 12.6 | – | 0.2 | 1
CCN(CC)CCN(CCNC[C@H](O)c1ccc(O)c2[nH]c(=O)sc12)C(=O)CCOCCc1cccc2ccccc12 [Example 6, N-[2-(Diethylamino)ethyl]-N-(2-{[(2R)-2-hydroxy-2-(4-hydroxy-2-oxo-2,3-dihydro-1,3-benzothiazol-7-yl)ethyl]amino}ethyl)-3-[2-(1-naphthyl)ethoxy]propanamide] | – | – | 2510 | 631 | 2510 | 2 | 0.9
